Experimental data taken from patent US12077503B2, “Substituted cyclic amides and their use as herbicides” (FMC CORPORATION, priority 2015, dated 2024).

How the values were obtained:
Type in all cases: in vivo
[1] = test system: ryegrass, Italian (Italian ryegrass, Lolium multiflorum); experiment: Test A preemergence; conditions: for Plant response rating, Ryegrass, Italian: 125 g ai/ha, preemergence, 0 to 100 scale (0 no effect, 100 complete control); for Ryegrass, Italian plant response rating (0 to 100 scale, 0 is no effect, 100 is complete control): Preemergence, 500 g ai/ha, visual injury approx. 10 d
Procedure, shortened: (§1)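 Visual injury, scored on a 0–100 scale relative to untreated controls, was recorded about 10 d after application. Treatments were a preemergence soil spray over planted seeds or a postemergence spray on plants at the one- to two-leaf stage, 2 to 10 cm tall, all in loam soil–sand blend in the greenhouse.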

[2] = test system: pigweed (Amaranthus retroflexus); experiment: Test A preemergence; conditions: for Plant response rating, Pigweed: 125 g ai/ha, preemergence, 0 to 100 scale (0 no effect, 100 complete control); for Pigweed plant response rating (0 to 100 scale, 0 is no effect, 100 is complete control): Preemergence, 500 g ai/ha, visual injury approx. 10 d
[3] = test system: barnyardgrass (Echinochloa crus-galli); experiment: Test A preemergence; conditions: for Plant response rating, Barnyardgrass: 125 g ai/ha, preemergence, 0 to 100 scale (0 no effect, 100 complete control); for Barnyardgrass plant response rating (0 to 100 scale, 0 is no effect, 100 is complete control): Preemergence, 500 g ai/ha, visual injury approx. 10 d
Procedure, shortened: as §1

Kochia (Kochia scoparia) [4] = experiment: Test A preemergence; conditions: for Plant response rating, Kochia: 125 g ai/ha, preemergence, 0 to 100 scale (0 no effect, 100 complete control); for Kochia plant response rating (0 to 100 scale, 0 is no effect, 100 is complete control): Preemergence, 500 g ai/ha, visual injury approx. 10 d
Procedure, shortened: as §1

[5] = test system: giant foxtail (Setaria faberii); experiment: Test A preemergence; conditions: for Plant response rating, Foxtail, Giant: 125 g ai/ha, preemergence, 0 to 100 scale (0 no effect, 100 complete control); for Foxtail, Giant plant response rating (0 to 100 scale, 0 is no effect, 100 is complete control): Preemergence, 500 g ai/ha, visual injury approx. 10 d
Procedure, shortened: as §1

[6] = test system: ragweed (common ragweed, Ambrosia elatior); experiment: Test A preemergence; conditions: for Plant response rating, Ragweed: 125 g ai/ha, preemergence, 0 to 100 scale (0 no effect, 100 complete control); for Ragweed plant response rating (0 to 100 scale, 0 is no effect, 100 is complete control): Preemergence, 500 g ai/ha, visual injury approx. 10 d
Procedure, shortened: as §1

rice (Oryra sativa) = experiment: Test B flooded paddy test; conditions: Flood, 250 g ai/ha; 0 to 100 scale where 0 is no effect and 100 is complete control; 13 to 15 d
Procedure, shortened: (§2)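 Compound goes directly into floodwater once pots are flooded 3 cm above soil, targeting plants at two leaves; the water depth is then held for the test duration. Plants sit 13–15 d in a greenhouse and are rated visually, 100 denoting complete control.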

[7] = test system: sedge, umbrella (small-flower umbrella sedge, Cyperus difformis); experiment: Test B flooded paddy test; conditions: Flood, 250 g ai/ha; 0 to 100 scale where 0 is no effect and 100 is complete control; 13 to 15 d
Procedure, shortened: as §2

[8] = test system: barnyardgrass (Echinochloa crus-galli); experiment: Test B flooded paddy test; conditions: Flood, 250 g ai/ha; 0 to 100 scale where 0 is no effect and 100 is complete control; 13 to 15 d
Procedure, shortened: as §2

[9] = test system: ducksalad (Heteranthera limosa); experiment: Test B flooded paddy test; conditions: Flood, 250 g ai/ha; 0 to 100 scale where 0 is no effect and 100 is complete control; 13 to 15 d
Procedure, shortened: as §2

[10] = test system: wheat (Triticum aestivum); experiment: Test A postemergence; conditions: postemergence; for Wheat plant response rating: 125 g ai/ha, visual injury rating on 0 to 100 scale (0 no effect, 100 complete control), approx. 10 d; for Plant response rating, Wheat: 500 g ai/ha, 0 to 100 scale, 0 no effect, 100 complete control
Procedure, shortened: as §1

[11] = test system: ryegrass, Italian (Italian ryegrass, Lolium multiflorum); experiment: Test A postemergence; conditions: postemergence; for Ryegrass, Italian plant response rating: 125 g ai/ha, visual injury rating on 0 to 100 scale (0 no effect, 100 complete control), approx. 10 d; for Plant response rating, Ryegrass, Italian: 500 g ai/ha, 0 to 100 scale, 0 no effect, 100 complete control
Procedure, shortened: as §1

[12] = test system: pigweed (Amaranthus retroflexus); experiment: Test A postemergence; conditions: postemergence; for Pigweed plant response rating: 125 g ai/ha, visual injury rating on 0 to 100 scale (0 no effect, 100 complete control), approx. 10 d; for Plant response rating, Pigweed: 500 g ai/ha, 0 to 100 scale, 0 no effect, 100 complete control
Procedure, shortened: as §1

[13] = test system: blackgrass (Alopecurus myosuroides); experiment: Test A postemergence; conditions: postemergence; for Blackgrass plant response rating: 125 g ai/ha, visual injury rating on 0 to 100 scale (0 no effect, 100 complete control), approx. 10 d; for Plant response rating, Blackgrass: 500 g ai/ha, 0 to 100 scale, 0 no effect, 100 complete control
Procedure, shortened: as §1

[14] = test system: Galium (catchweed bedstraw, Galium aparine); experiment: Test A postemergence; conditions: postemergence; for Galium plant response rating: 125 g ai/ha, visual injury rating on 0 to 100 scale (0 no effect, 100 complete control), approx. 10 d; for Plant response rating, Galium: 500 g ai/ha, 0 to 100 scale, 0 no effect, 100 complete control
Procedure, shortened: as §1

[15] = test system: barnyardgrass (Echinochloa crus-galli); experiment: Test A postemergence; conditions: postemergence; for Barnyardgrass plant response rating: 125 g ai/ha, visual injury rating on 0 to 100 scale (0 no effect, 100 complete control), approx. 10 d; for Plant response rating, Barnyardgrass: 500 g ai/ha, 0 to 100 scale, 0 no effect, 100 complete control
Procedure, shortened: as §1

Kochia (Kochia scoparia) [16] = experiment: Test A postemergence; conditions: postemergence; for Kochia plant response rating: 125 g ai/ha, visual injury rating on 0 to 100 scale (0 no effect, 100 complete control), approx. 10 d; for Plant response rating, Kochia: 500 g ai/ha, 0 to 100 scale, 0 no effect, 100 complete control
Procedure, shortened: as §1

corn (Zea mays) = experiment: Test A postemergence; conditions: postemergence; for Corn plant response rating: 125 g ai/ha, visual injury rating on 0 to 100 scale (0 no effect, 100 complete control), approx. 10 d; for Plant response rating, Corn: 500 g ai/ha, 0 to 100 scale, 0 no effect, 100 complete control
Procedure, shortened: as §1

[17] = test system: giant foxtail (Setaria faberii); experiment: Test A postemergence; conditions: postemergence; for Foxtail, Giant plant response rating: 125 g ai/ha, visual injury rating on 0 to 100 scale (0 no effect, 100 complete control), approx. 10 d; for Plant response rating, Foxtail, Giant: 500 g ai/ha, 0 to 100 scale, 0 no effect, 100 complete control
Procedure, shortened: as §1

[18] = test system: ragweed (common ragweed, Ambrosia elatior); experiment: Test A postemergence; conditions: postemergence; for Ragweed plant response rating: 125 g ai/ha, visual injury rating on 0 to 100 scale (0 no effect, 100 complete control), approx. 10 d; for Plant response rating, Ragweed: 500 g ai/ha, 0 to 100 scale, 0 no effect, 100 complete control
Procedure, shortened: as §1

SMILES	Plant response rating, Ryegrass, Italian [1]	Ryegrass, Italian plant response rating (0 to 100 scale, 0 is no effect, 100 is complete control) [1]	Plant response rating, Pigweed [2]	Pigweed plant response rating (0 to 100 scale, 0 is no effect, 100 is complete control) [2]	Plant response rating, Barnyardgrass [3]	Barnyardgrass plant response rating (0 to 100 scale, 0 is no effect, 100 is complete control) [3]	Plant response rating, Kochia (Kochia (Kochia scoparia) [4])	Kochia plant response rating (0 to 100 scale, 0 is no effect, 100 is complete control) (Kochia (Kochia scoparia) [4])	Plant response rating, Foxtail, Giant [5]	Foxtail, Giant plant response rating (0 to 100 scale, 0 is no effect, 100 is complete control) [5]	Plant response rating, Ragweed [6]	Ragweed plant response rating (0 to 100 scale, 0 is no effect, 100 is complete control) [6]	Plant response rating, Rice (rice (Oryra sativa))	Plant response rating, Sedge, Umbrella [7]	Plant response rating, Barnyardgrass [8]	Plant response rating, Ducksalad [9]	Wheat plant response rating [10]	Plant response rating, Wheat [10]	Ryegrass, Italian plant response rating [11]	Plant response rating, Ryegrass, Italian [11]	further results
CN1CC(c2ccc(F)cc2)C(C(=O)Nc2ccccc2F)C1=O (stereo not drawn) [Compound 437]	0	50	20	80	90	90	60	70	90	100	0	60	0	0	65	100	0	40	0	20	Pigweed plant response rating [12]: 0; Plant response rating, Pigweed [12]: 20; Blackgrass plant response rating [13]: 0; Plant response rating, Blackgrass [13]: 30; Galium plant response rating [14]: 30; Plant response rating, Galium [14]: 50; Barnyardgrass plant response rating [15]: 90; Plant response rating, Barnyardgrass [15]: 90; Kochia plant response rating (Kochia (Kochia scoparia) [16]): 20; Plant response rating, Kochia (Kochia (Kochia scoparia) [16]): 30; Corn plant response rating (corn (Zea mays)): 0; Plant response rating, Corn (corn (Zea mays)): 20; Foxtail, Giant plant response rating [17]: 90; Plant response rating, Foxtail, Giant [17]: 90; Ragweed plant response rating [18]: 0; Plant response rating, Ragweed [18]: 0
CN1CC(c2ccc(F)cc2)C(C(=O)Nc2ccccc2S(C)(=O)=O)C1=O (stereo not drawn) [Compound 439]	0	50	50	80	90	90	70	70	90	100	0	60	0	0	40	100	0	40	0	30	Pigweed plant response rating [12]: 40; Plant response rating, Pigweed [12]: 50; Blackgrass plant response rating [13]: 0; Plant response rating, Blackgrass [13]: 60; Galium plant response rating [14]: 40; Plant response rating, Galium [14]: 50; Barnyardgrass plant response rating [15]: 90; Plant response rating, Barnyardgrass [15]: 90; Kochia plant response rating (Kochia (Kochia scoparia) [16]): 30; Plant response rating, Kochia (Kochia (Kochia scoparia) [16]): 70; Corn plant response rating (corn (Zea mays)): 0; Plant response rating, Corn (corn (Zea mays)): 20; Foxtail, Giant plant response rating [17]: 90; Plant response rating, Foxtail, Giant [17]: 90; Ragweed plant response rating [18]: 0; Plant response rating, Ragweed [18]: 20
CN1CC(c2ccc3c(c2)OC(F)(F)O3)C(C(=O)Nc2ccc(F)cc2F)C1=O (stereo not drawn) [Compound 444]	40	90	80	80	90	90	60	80	90	90	50	80	0	0	75	100	50	50	50	80	Pigweed plant response rating [12]: 50; Plant response rating, Pigweed [12]: 80; Blackgrass plant response rating [13]: 70; Plant response rating, Blackgrass [13]: 60; Galium plant response rating [14]: 60; Plant response rating, Galium [14]: 70; Barnyardgrass plant response rating [15]: 80; Plant response rating, Barnyardgrass [15]: 90; Kochia plant response rating (Kochia (Kochia scoparia) [16]): 40; Plant response rating, Kochia (Kochia (Kochia scoparia) [16]): 80; Corn plant response rating (corn (Zea mays)): 60; Plant response rating, Corn (corn (Zea mays)): 70; Foxtail, Giant plant response rating [17]: 80; Plant response rating, Foxtail, Giant [17]: 80; Ragweed plant response rating [18]: 20; Plant response rating, Ragweed [18]: 40
